Test results reported in ChEMBL document CHEMBL1136823, “Lead discovery of alpha,beta-unsaturated sulfones from a combinatorial library as inhibitors of inducible VCAM-1 expression” (Bioorg Med Chem Lett, 2003).
pIC50: −log10 of the molar value.

Assays:
[1] = In vitro inhibition of inducible vascular cell adhesion molecule-1 (VCAM-1) expression in Human aortic endothelial cells (HAEC); NE denotes no effect; type: functional, cell-based
[2] = In vitro inhibition of inducible vascular cell adhesion molecule-1 (VCAM-1) expression in Human aortic endothelial cells (HAEC); type: functional, cell-based

SMILES: CCOC(=O)CNCCS(=O)(=O)c1ccccc1
- IC50 [1]: Not Active

SMILES: O=S(=O)(c1ccccc1)c1cccs1
- IC50 [1]: Not Active

SMILES: COC(=O)CS(=O)(=O)c1ccccc1
- IC50 [1]: Not Active

SMILES: CCCOCCS(=O)(=O)c1cccc(N)c1
- IC50 [1]: Not Active

SMILES: CC(=O)OCCS(=O)(=O)c1cccc(N)c1
- pIC50 [2]: 5.00

SMILES: CCS(=O)(=O)c1ccccc1
- IC50 [1]: Not Active

SMILES: CCCCCCC/C=C/C(=O)Nc1cccc(S(=O)(=O)CCO)c1
- pIC50 [2]: 4.64

SMILES: CCCCCC#CC(=O)OCCS(=O)(=O)c1cccc(N)c1
- pIC50 [2]: 5.22

SMILES: Nc1cccc(S(=O)(=O)CCO)c1
- IC50 [1]: Not Active

SMILES: C=CC(=O)OCCS(=O)(=O)c1ccccc1
- pIC50 [2]: 5.15

SMILES: CCCCC/C=C/C(=O)OCCS(=O)(=O)c1ccccc1
- pIC50 [2]: 4.77

SMILES: CCOCCS(=O)(=O)c1ccccc1
- IC50 [1]: Not Active

SMILES: CC(=O)Nc1cccc(S(=O)(=O)CCOC(C)=O)c1
- pIC50 [2]: 5.40

SMILES: CCN(CC)CCS(=O)(=O)c1ccccc1
- IC50 [1]: Not Active

SMILES: C=CS(C)(=O)=O
- pIC50 [2]: 4.85

SMILES: CCCCCC#CC(=O)Nc1cccc(S(=O)(=O)CCO)c1
- pIC50 [2]: 4.70

SMILES: CC(=O)OCCS(=O)(=O)c1ccccc1
- pIC50 [2]: 4.92

SMILES: C=C[S+]([O-])c1ccccc1 (configuration not stated)
- IC50 [1]: Not Active

SMILES: O=S(=O)(CCNCc1ccccc1)c1ccccc1
- IC50 [1]: Not Active

SMILES: CCCCCCCCOCCS(=O)(=O)c1ccccc1
- IC50 [1]: Not Active

SMILES: O=S(=O)(CCCl)c1ccccc1
- pIC50 [2]: 5.70

SMILES: CCCNc1cccc(S(=O)(=O)CCOC(C)=O)c1
- IC50 [1]: Not Active

SMILES: O=S(=O)(c1ccccc1)c1ccsc1
- IC50 [1]: Not Active

SMILES: CCCCC/C=C/C(=O)OCCS(=O)(=O)c1cccc(N)c1
- pIC50 [2]: 4.77

SMILES: O=S1(=O)C=Cc2ccccc21
- pIC50 [2]: 5.40

SMILES: C=CS(=O)(=O)c1cccc(NCCCCCCCC)c1
- pIC50 [2]: 4.54

SMILES: C=CCCS(=O)(=O)c1ccccc1
- IC50 [1]: Not Active

SMILES: CCCCCCC/C=C/C(=O)OCCS(=O)(=O)c1cccc(N)c1
- pIC50 [2]: 4.55

SMILES: O=C1c2ccccc2C(=O)N1CCS(=O)(=O)c1ccccc1
- IC50 [1]: Not Active

SMILES: CCCCCCCCNc1cccc(S(=O)(=O)CCOC(C)=O)c1
- IC50 [1]: Not Active

SMILES: CC(=O)CCCS(=O)(=O)c1ccccc1
- IC50 [1]: Not Active

SMILES: C=CS(=O)(=O)c1ccccc1 [(ETHENYLSULFONYL)BENZENE]
- pIC50 [2]: 5.70
